From a compilation of properties of binary mixtures (doi:10.1016/j.molliq.2020.112816)

Test: xn = mol fraction of the nth substance listed
Conditions: 101 kPa

NC=O + CCCC[n+]1ccn(C)c1.F[B-](F)(F)F
Conditions | speed of sound [m/s] | viscosity [mPa·s]
293.15 K, x2 = 0.0675 | 1614.2 | 4.01
293.15 K, x2 = 0.135 | 1613.4 | 4.81
293.15 K, x2 = 0.2054 | 1611.9 | 7
293.15 K, x2 = 0.4499 | 1602.9 | 24.97
293.15 K, x2 = 0.6639 | 1593.2 | 54.2
293.15 K, x2 = 0.7588 | 1588.7 | 71.4
293.15 K, x2 = 0.8107 | 1586.2 | 81.8
293.15 K, x2 = 0.8626 | 1583.7 | 93.3
293.15 K, x2 = 0.9313 | 1580.3 | 109.6
298.15 K, x2 = 0 | 1602.4 | 3.27
298.15 K, x2 = 0.0675 | 1603 | 3.73
298.15 K, x2 = 0.135 | 1602.3 | 4.65
298.15 K, x2 = 0.2054 | 1600.8 | 6.6
298.15 K, x2 = 0.3629 | 1595.4 | 14.43
298.15 K, x2 = 0.4499 | 1591.8 | 20.95
298.15 K, x2 = 0.5095 | 1589.3 | 26.31
298.15 K, x2 = 0.569 | 1586.6 | 32.4
298.15 K, x2 = 0.6639 | 1582.2 | 43.6
298.15 K, x2 = 0.8626 | 1572.7 | 73.4
298.15 K, x2 = 0.9313 | 1569.3 | 85.6
303.15 K, x2 = 0 | 1590.5 | 2.918
303.15 K, x2 = 0.0675 | 1591.4 | 3.28
303.15 K, x2 = 0.135 | 1590.9 | 4.23
303.15 K, x2 = 0.2054 | 1589.4 | 5.84
303.15 K, x2 = 0.2758 | 1587.2 | 8.24
303.15 K, x2 = 0.3629 | 1584 | 12.35
303.15 K, x2 = 0.5095 | 1578 | 21.66
303.15 K, x2 = 0.569 | 1575.3 | 26.36
303.15 K, x2 = 0.6639 | 1570.9 | 35
303.15 K, x2 = 0.7588 | 1566.5 | 44.9
308.15 K, x2 = 0 | 1578.3 | 2.607
308.15 K, x2 = 0.0675 | 1579.4 | 3.049
308.15 K, x2 = 0.135 | 1579 | 3.99
308.15 K, x2 = 0.2054 | 1577.5 | 5.48
308.15 K, x2 = 0.3629 | 1572.2 | 10.72
308.15 K, x2 = 0.5095 | 1566.2 | 17.95
308.15 K, x2 = 0.569 | 1563.6 | 21.5
308.15 K, x2 = 0.6639 | 1559.3 | 27.92
308.15 K, x2 = 0.7588 | 1554.8 | 35.3
308.15 K, x2 = 0.8107 | 1552.3 | 39.7
308.15 K, x2 = 0.8626 | 1549.8 | 44.5
313.15 K, x2 = 0 | 1565.9 | 2.328
313.15 K, x2 = 0.0675 | 1567.3 | 2.599
313.15 K, x2 = 0.135 | 1567 | 3.4
313.15 K, x2 = 0.2758 | 1563.3 | 6.21
313.15 K, x2 = 0.5095 | 1554.2 | 14.39
313.15 K, x2 = 0.569 | 1551.6 | 17.16
313.15 K, x2 = 0.6639 | 1547.3 | 22.22
313.15 K, x2 = 0.7588 | 1542.9 | 28.02
313.15 K, x2 = 0.8107 | 1540.4 | 31.6
313.15 K, x2 = 0.8626 | 1537.8 | 35.2
313.15 K, x2 = 0.9313 | 1534.3 | 40.4
318.15 K, x2 = 0 | 1553.1 | 2.096
318.15 K, x2 = 0.0675 | 1554.9 | 2.4
318.15 K, x2 = 0.135 | 1554.6 | 2.982
318.15 K, x2 = 0.2054 | 1553 | 3.88
318.15 K, x2 = 0.3629 | 1547.7 | 7.11
318.15 K, x2 = 0.4499 | 1544.2 | 9.72
318.15 K, x2 = 0.5095 | 1541.8 | 11.78
318.15 K, x2 = 0.7588 | 1530.5 | 23.24
318.15 K, x2 = 0.8107 | 1528 | 26.2
318.15 K, x2 = 0.9313 | 1521.9 | 33.8

CCCC[n+]1ccn(C)c1.F[B-](F)(F)F + NC=O
x1 = 1
Conditions | speed of sound [m/s] | viscosity [mPa·s]
293.15 K | 1576.8 | 127.6
298.15 K | 1565.7 | 98.9
303.15 K | 1554.4 | 76.3
313.15 K | 1530.5 | 46.2
